This is an account of results in patent US10722514B2 (FLX Bio, Inc., priority 2017, dated 2020).

In this test the target is T1, recombinant full-length USP7 (Homo sapiens, UniProt Q93009).
T1 construct: A 25 μl reaction volume containing recombinant full-length USP7 (62 pM)
In words: USP7-mediated ubiquitin-rhodamine cleavage assay. The conditions noted are these: recombinant full-length USP7 62 pM, ubiquitin-rhodamine 100 nM, 1 hour reaction at room temperature. Format: biochemical. In a few lines: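 USP7 (62 pM) in 20 mM HEPES pH 7.3, 150 mM NaCl, 1 mM TCEP, 125 μg/ml BSA was preincubated with compound (1% DMSO) for 30 min at room temperature. Ubiquitin-rhodamine (100 nM final) was then added for 1 hour, the reaction stopped with acetic acid, and fluorescence read; IC50 from 4-parameter fit.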

[1] abbreviates: 30-minute pre-incubation, read-out: Potency (USP7 IC50).
Where [2] appears, read: 30-minute incubation, read-out: Potency (USP7 IC50).
[3] abbreviates: 30-minute incubation with compound, read-out: Potency: USP7 IC50.

Structures can show the parent of a compound that is named as a salt. Where two headings read alike, the source gives them in different places.

T1 sequence (Q93009 whole entry): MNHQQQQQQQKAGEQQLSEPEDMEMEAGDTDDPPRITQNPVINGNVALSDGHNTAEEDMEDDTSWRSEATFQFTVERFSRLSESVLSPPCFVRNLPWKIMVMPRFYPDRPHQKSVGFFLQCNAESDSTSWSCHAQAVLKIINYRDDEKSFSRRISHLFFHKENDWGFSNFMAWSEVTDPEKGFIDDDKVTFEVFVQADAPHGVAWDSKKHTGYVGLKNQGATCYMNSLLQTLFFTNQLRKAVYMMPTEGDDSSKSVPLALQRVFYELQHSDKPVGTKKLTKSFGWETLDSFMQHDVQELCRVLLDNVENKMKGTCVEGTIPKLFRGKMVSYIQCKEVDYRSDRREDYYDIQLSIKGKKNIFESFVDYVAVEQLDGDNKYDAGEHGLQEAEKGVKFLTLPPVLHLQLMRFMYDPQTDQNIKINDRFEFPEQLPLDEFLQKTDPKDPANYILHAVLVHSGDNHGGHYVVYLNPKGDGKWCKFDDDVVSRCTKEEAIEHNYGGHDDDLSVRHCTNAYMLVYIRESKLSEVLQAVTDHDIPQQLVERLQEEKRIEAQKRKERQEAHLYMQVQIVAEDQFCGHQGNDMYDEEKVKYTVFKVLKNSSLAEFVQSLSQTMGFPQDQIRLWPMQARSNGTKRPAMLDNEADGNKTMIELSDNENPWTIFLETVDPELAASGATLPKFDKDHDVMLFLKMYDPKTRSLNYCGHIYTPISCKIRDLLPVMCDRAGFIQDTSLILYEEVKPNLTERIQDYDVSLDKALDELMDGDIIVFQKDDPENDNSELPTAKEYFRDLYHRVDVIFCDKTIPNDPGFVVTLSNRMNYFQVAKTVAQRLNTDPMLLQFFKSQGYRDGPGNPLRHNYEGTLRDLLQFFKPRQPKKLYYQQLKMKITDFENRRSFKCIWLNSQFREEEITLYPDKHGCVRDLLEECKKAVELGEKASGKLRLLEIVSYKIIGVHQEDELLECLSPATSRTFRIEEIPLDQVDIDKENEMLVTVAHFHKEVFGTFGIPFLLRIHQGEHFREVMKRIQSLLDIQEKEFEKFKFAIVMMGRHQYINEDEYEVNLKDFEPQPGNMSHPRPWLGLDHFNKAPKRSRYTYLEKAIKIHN

In general, IC50 refers to the point on the concentration scale where inhibition reaches its midpoint. For the molecule `CCN1CC[C@@H](Oc2c(C)cc(Cl)cc2-c2ccnc3cc(Cn4c(=O)ccn(C)c4=O)sc23)[C@@H](C)C1` [Example 455, 3-[[7-[5-chloro-2-[[(3S,4R)-1-ethyl-3-methyl-4-piperidyl]oxy]-3-methyl-phenyl]thieno[3,2-b]pyridin-2-yl]methyl]-1-methyl-pyrimidine-2,4-dione], the IC50 under setting [1] was below 1000 nM. In the case of `Cc1cc(Cl)cc(-c2ccnc3cc(Cn4c(=O)ccn(C)c4=O)sc23)c1O[C@@H]1CNC[C@@H](F)C1` [Example 496, 3-[[7-[5-chloro-2-[[(3S,5S)-5-fluoro-3-piperidyl]oxy]-3-methyl-phenyl]thieno[3,2-b]pyridin-2-yl]methyl]-1-methyl-pyrimidine-2,4-dione], the IC50 under setting [1] is below 1000 nM.

Take `Cc1cc(Cl)cc(-c2ccnc3cc(Cn4c(=O)ccn(CC(F)(F)F)c4=O)sc23)c1OC1CN2CCC1C2` [Example 589, 3-[[7-[2-[[(1S,3S,4R)-1-azabicyclo[2.2.1]heptan-3-yl]oxy]-5-chloro-3-methyl-phenyl]thieno[3,2-b]pyridin-2-yl]methyl]-1-(2,2,2-trifluoroethyl)pyrimidine-2,4-dione]: the half-inhibitory concentration (IC50) under setting [1] is below 1000 nM. Take `Cc1cc(Cl)cc(-c2ccnc3cc(Cn4c(=O)ccn(CC(F)(F)F)c4=O)sc23)c1OC1CC(N2[C@@H]3CC[C@H]2COC3)C1` (stereo partly drawn) [Example 676, 3-[[7-[5-chloro-3-methyl-2-[3-[(1R,5S)-3-oxa-8-azabicyclo[3.2.1]octan-8-yl]cyclobutoxy]phenyl]thieno[3,2-b]pyridin-2-yl]methyl]-1-(2,2,2-trifluoroethyl)pyrimidine-2,4-dione]: the IC50 under setting [2] is below 1000 nM.

On to `Cc1cc(Cl)cc(-c2ccnc3cc(Cn4c(=O)ccn(C)c4=O)sc23)c1O[C@@H]1C[C@H]2COCCN2C1` [Example 501, 3-[[7-[2-[[(7R,8aS)-3,4,6,7,8,8a-hexahydro-1H-pyrrolo[2,1-c][1,4]oxazin-7-yl]oxy]-5-chloro-3-methyl-phenyl]thieno[3,2-b]pyridin-2-yl]methyl]-1-methyl-pyrimidine-2,4-dione], for which, under setting [1], the IC50 was below 1000 nM.

As to `Cc1cc(Cl)cc(-c2ccnc3cc(Cn4c(=O)ccn(CC(F)(F)F)c4=O)sc23)c1OC1(C)CCNCC1` [Example 618, 3-[[7-[5-chloro-3-methyl-2-[(4-methyl-4-piperidyl)oxy]phenyl]thieno[3,2-b]pyridin-2-yl]methyl]-1-(2,2,2-trifluoroethyl)pyrimidine-2,4-dione], the half-maximal inhibitory concentration (IC50) under setting [1] is below 1000 nM. As for `COC1CCC(Oc2c(C)cc(Cl)cc2-c2ccnc3cc(Cn4c(=O)ccn(CC(F)(F)F)c4=O)sc23)CC1` (stereo not drawn) [Example 674, 3-[[7-[5-chloro-2-(4-methoxycyclohexoxy)-3-methyl-phenyl]thieno[3,2-b]pyridin-2-yl]methyl]-1-(2,2,2-trifluoroethyl)pyrimidine-2,4-dione], under setting [2], the IC50 was below 1000 nM. With `COC(=O)N1CC[C@@H](Oc2c(C)cc(Cl)cc2-c2ccnc3cc(Cn4c(=O)ccn(CC(F)(F)F)c4=O)sc23)[C@@H](C)C1` [Example 643, methyl (3S,4R)-4-[4-chloro-2-[2-[[2,6-dioxo-3-(2,2,2-trifluoroethyl)pyrimidin-1-yl]methyl]thieno[3,2-b]pyridin-7-yl]-6-methyl-phenoxy]-3-methyl-piperidine-1-carboxylate], the 50% inhibitory concentration (IC50) under setting [1] is below 1000 nM. The same measure, in the same setting: with `CCN1CC[C@H](Oc2c(C)cc(Cl)cc2-c2ccnc3cc(Cn4c(=O)ccn(C)c4=O)sc23)CC1(C)C` [Example 491, 3-[[7-[5-chloro-2-[[(4S)-1-ethyl-2,2-dimethyl-4-piperidyl]oxy]-3-methyl-phenyl]thieno[3,2-b]pyridin-2-yl]methyl]-1-methyl-pyrimidine-2,4-dione; 2,2,2-trifluoroacetic acid] the figure was below 1000 nM. Consider `Cc1cc(Cl)cc(-c2ccnc3cc(Cn4c(=O)ccn(CC(F)(F)F)c4=O)sc23)c1OC1CCOCC1` [Example 670], for which, under setting [2], the half-inhibitory concentration (IC50) was below 1000 nM. Consider `Cc1cc(Cl)cc(-c2ccnc3cc(CN4C(=O)C5C(C4=O)C5(C)C)sc23)c1OC1CN2CCC1CC2` (stereo not drawn) [Example 316, 3-[[7-(5-chloro-3-methyl-2-quinuclidin-3-yloxy-phenyl)thieno[3,2-b]pyridin-2-yl]methyl]-6,6-dimethyl-3-azabicyclo[3.1.0]hexane-2,4-dione; 2,2,2-trifluoroacetic acid], for which, under setting [3], the IC50 is below 1000 nM. Consider `Cc1cc(Cl)cc(-c2ccnc3cc(Cn4c(=O)ccn(CC(F)(F)F)c4=O)sc23)c1O[C@@H]1CCN(C2CCOC2)C[C@H]1C` (stereo partly drawn) [Example 608, 3-[[7-[5-chloro-3-methyl-2-[[(3R,4R)-3-methyl-1-tetrahydrofuran-3-yl-4-piperidyl]oxy]phenyl]thieno[3,2-b]pyridin-2-yl]methyl]-1-(2,2,2-trifluoroethyl)pyrimidine-2,4-dione], for which the IC50 under setting [1] was below 1000 nM. For `Cc1cc(Cl)cc(-c2ccncc2CCCN2C(=O)CCC2=O)c1OC1CNC[C@@H]1F` (stereo partly drawn) [Example 409, 1-[3-[4-[5-chloro-2-[(4S)-4-fluoropyrrolidin-3-yl]oxy-3-methyl-phenyl]-3-pyridyl]propyl]pyrrolidine-2,5-dione; 2,2,2-trifluoroacetic acid], under setting [1], the IC50 is 1000 to 10000 nM. For the molecule `Cc1cc(Cl)cc(-c2ccnc3cc([C@H](C)n4c(=O)ccn(C)c4=O)sc23)c1O[C@H]1CCCNC1` [Example 287, 3-[(1S)-1-[7-[5-chloro-3-methyl-2-[[(3S)-3-piperidyl]oxy]phenyl]thieno[3,2-b]pyridin-2-yl]ethyl]-1-methyl-pyrimidine-2,4-dione; 2,2,2-trifluoroacetic acid], the half-maximal inhibitory concentration (IC50) under setting [3] was below 1000 nM. `Cc1cc(Cl)cc(-c2ccnc3cc(Cn4c(=O)ccn(C)c4=O)sc23)c1O[C@@H]1C[C@@H]2COCCN2C1` [Example 502, 3-[[7-[2-[[(7R,8aR)-3,4,6,7,8,8a-hexahydro-1H-pyrrolo[2,1-c][1,4]oxazin-7-yl]oxy]-5-chloro-3-methyl-phenyl]thieno[3,2-b]pyridin-2-yl]methyl]-1-methyl-pyrimidine-2,4-dione]: the IC50 under setting [1] is below 1000 nM. Regarding `Cc1cc(Cl)cc(-c2ccnc3cc(CN4C(=O)C5C(C4=O)C5(C)C)sc23)c1OC1CNCC1(C)F` (stereo not drawn) [Example 372, 3-[[7-[5-chloro-2-(4-fluoro-4-methyl-pyrrolidin-3-yl)oxy-3-methyl-phenyl]thieno[3,2-b]pyridin-2-yl]methyl]-6,6-dimethyl-3-azabicyclo[3.1.0]hexane-2,4-dione dihydrochloride], the IC50 under setting [3] was below 1000 nM. On to `Cc1cc(Cl)cc(-c2ccnc3cc(Cn4c(=O)cc(C(F)(F)F)n(C)c4=O)sc23)c1O[C@H]1CCCNC1` [Example 515, 3-[[7-[5-chloro-3-methyl-2-[[(3S)-3-piperidyl]oxy]phenyl]thieno[3,2-b]pyridin-2-yl]methyl]-1-methyl-6-(trifluoromethyl)pyrimidine-2,4-dione; 2,2,2-trifluoroacetic acid], for which the IC50 under setting [1] is below 1000 nM. For `Cc1cc(Cl)cc(-c2ccnc3cc(CO)sc23)c1O[C@@H]1CN[C@H](C)C1` [Example 62, (7-(5-Chloro-3-methyl-2-(((3S,5R)-5-methylpyrrolidin-3-yl)oxy)phenyl)thieno[3,2-b]pyridin-2-yl)methanol], the 50% inhibitory concentration (IC50) under setting [3] was 10000 to 30000 nM. In the case of `Cc1cc(Cl)cc(-c2ncnc3cc(CN4C(=O)C5C(C4=O)C5(C)C)sc23)c1O[C@@H]1CCNC[C@@H]1C` (stereo partly drawn) [Example 365, 3-[[4-[5-chloro-3-methyl-2-[[(3S,4R)-3-methyl-4-piperidyl]oxy]phenyl]thieno[3,2-d]pyrimidin-6-yl]methyl]-6,6-dimethyl-3-azabicyclo[3.1.0]hexane-2,4-dione dihydrochloride], the IC50 under setting [3] was below 1000 nM.

With `Cc1cc(Cl)cc(-c2ccnc3cc(CN4C(=O)C5C(C4=O)C5(C)C)sc23)c1O[C@@H]1CCNC[C@@H]1F` (stereo partly drawn) [Example 382, 3-[[7-[5-chloro-2-[[(3S,4R)-3-fluoro-4-piperidyl]oxy]-3-methyl-phenyl]thieno[3,2-b]pyridin-2-yl]methyl]-6,6-dimethyl-3-azabicyclo[3.1.0]hexane-2,4-dione; 2,2,2-trifluoroacetic acid], the IC50 under setting [3] is below 1000 nM. As to `Cc1cc(Cl)cc(-c2ccnc3cc(CO)sc23)c1OCC1(C)CNC1` [Example 17, (7-(5-Chloro-3-methyl-2-((3-methylazetidin-3-yl)methoxy)phenyl)thieno[3,2-b]pyridin-2-yl)methanol], the 50% inhibitory concentration (IC50) under setting [3] was in the range of 1000 to 10000 nM.

`Cc1cc(Cl)cc(-c2ncnc3cc(Cn4c(=O)ccn(C(C)C)c4=O)sc23)c1O[C@H]1CCNC[C@@H]1F` [Example 564, 3-[[4-[5-chloro-2-[[(3S,4S)-3-fluoro-4-piperidyl]oxy]-3-methyl-phenyl]thieno[3,2-d]pyrimidin-6-yl]methyl]-1-isopropyl-pyrimidine-2,4-dione]: the concentration for half-maximal inhibition (IC50) under setting [1] was below 1000 nM.

Consider `Cc1cc(Cl)cc(-c2ccnc3cc(Cn4c(=O)ccn(CC(F)(F)F)c4=O)sc23)c1OC1CCS(=O)(=O)CC1` [Example 680, 3-[[7-[5-chloro-2-(1,1-dioxoothian-4-yl)oxy-3-methyl-phenyl]thieno[3,2-b]pyridin-2-yl]methyl]-1-(2,2,2-trifluoroethyl)pyrimidine-2,4-dione], for which, under setting [2], the half-inhibitory concentration (IC50) was below 1000 nM. As for `Cc1cc(Cl)cc(-c2ccnc3cc(CN4C(=O)CN(CC(F)(F)F)C4=O)sc23)c1O[C@H]1CCCNC1` [Example 693, 3-[[7-[5-chloro-3-methyl-2-[[(3S)-3-piperidyl]oxy]phenyl]thieno[3,2-b]pyridin-2-yl]methyl]-1-(2,2,2-trifluoroethyl)imidazolidine-2,4-dione; 2,2,2-trifluoroacetic acid], the IC50 under setting [2] was below 1000 nM.
